Among the data in ChEMBL document CHEMBL1159249, “Malyngamide H, an ichthyotoxic amide possessing a new carbon skeleton from the Caribbean cyanobacterium Lyngbya majuscula” (J Nat Prod, 1995) are EC50, LC50 and Activity values, retold here.

Broadly, the EC50 is the concentration giving half of the maximal effect. Broadly, the LC50 is the concentration lethal to half of the exposed cells or organisms.

Common to all, as to type: organism-based
One data set has as its system Carassius auratus. The data set is described as follows: Ichthyotoxicity in gold fish assessed as inability to swim after 1 hr.
The nature of data set [1]: Ichthyotoxicity in gold fish assessed as death after 1 hr. To be noted: carassius auratus, in vivo.
A further data set deals with Artemia. The data set is described as follows: Toxicity in brine shrimp. To be noted: in vivo.

≈ marks a conversion by molar mass, not a printed value.

With `C=C(CCNC(=O)CC/C=C/C[C@H](CCCCCCC)OC)[C@@]12O[C@@H]1CC=C(C)C2=O` [MALYNGAMIDE H], in the data set on Carassius auratus, the EC50 amounted to 2 µg/mL (≈ 4.63 µM). Besides, in data set [1], the LC50 at 1 h came to 5 µg/mL (≈ 11.6 µM). Besides, the Activity entry in the data set with Artemia is recorded as “Not Active”.
